PMC9856672, “SGC-CAMKK2-1: A Chemical Probe for CAMKK2” (Cells, 2023)

Columns and labels:
SIK = biological target: T1, SIK (Homo sapiens, UniProt P57059); test: DiscoverX KINOMEscan binding assay at 1 μM, SIK; conditions: SIK (SIK1); Compound Concentration 1000 nM; read-out: Percent Control
T1 construct: purchased Eurofins DiscoverX KINOMEscan
Description: (§1) Supplement cells-12-00287-s001.zip/File S2. KinomeScan data for the CAMKK2 probe and negative control.xlsx, sheet "SGC-CAMKK2-1" | column: Percent Control

CDKL5 = biological target: T2, CDKL5 (Homo sapiens, UniProt O76039); test: KINOMEscan 1 μM, CDKL5; assay type: binding; conditions: 1000 nM; Entrez CDKL5; read-out: Percent Control
T2 construct: purchased Eurofins DiscoverX KINOMEscan
Description: as §1

MST1R = biological target: T3, MST1R (Homo sapiens, UniProt Q04912); test: KINOMEscan 1 μM, MST1R; assay type: binding; conditions: 1000 nM; Entrez MST1R; read-out: Percent Control
T3 construct: purchased Eurofins DiscoverX KINOMEscan
Description: as §1

RIOK3 = biological target: T4, RIOK3 (Homo sapiens, UniProt O14730); test: KINOMEscan 1 μM, RIOK3; assay type: binding; conditions: 1000 nM; Entrez RIOK3; read-out: Percent Control
T4 construct: purchased Eurofins DiscoverX KINOMEscan
Description: as §1

ERK3 = biological target: T5, ERK3 (Homo sapiens, UniProt Q16659); test: KINOMEscan 1 μM, ERK3; assay type: binding; conditions: 1000 nM; Entrez MAPK6; read-out: Percent Control
T5 construct: purchased Eurofins DiscoverX KINOMEscan
Description: as §1

TRKA = biological target: T6, TRKA (Homo sapiens, UniProt P04629); test: DiscoverX KINOMEscan binding assay at 1 μM, TRKA; conditions: TRKA (NTRK1); Compound Concentration 1000 nM; read-out: Percent Control
T6 construct: purchased Eurofins DiscoverX KINOMEscan
Description: as §1

BRAF = biological target: T7, BRAF (Homo sapiens, UniProt P15056); test: KINOMEscan 1 μM, BRAF; assay type: binding; conditions: 1000 nM; Entrez BRAF; read-out: Percent Control
T7 construct: purchased Eurofins DiscoverX KINOMEscan
Description: as §1

LATS1 = biological target: T8, LATS1 (Homo sapiens, UniProt O95835); test: KINOMEscan 1 μM, LATS1; assay type: binding; conditions: 1000 nM; Entrez LATS1; read-out: Percent Control
T8 construct: purchased Eurofins DiscoverX KINOMEscan
Description: as §1

GRK7 = biological target: T9, GRK7 (Homo sapiens, UniProt Q8WTQ7); test: KINOMEscan 1 μM, GRK7; assay type: binding; conditions: 1000 nM; Entrez GRK7; read-out: Percent Control
T9 construct: purchased Eurofins DiscoverX KINOMEscan
Description: as §1

EGFR(T790M) = biological target: T10, EGFR(T790M) (Homo sapiens, UniProt P00533, T790M); test: KINOMEscan 1 μM, EGFR(T790M); assay type: binding; conditions: 1000 nM; Entrez EGFR; read-out: Percent Control
T10 construct: purchased Eurofins DiscoverX KINOMEscan
Description: as §1

[1] = biological target: T11, JAK2(JH1domain-catalytic) (Homo sapiens, UniProt O60674); test: KINOMEscan 1 μM, JAK2(JH1domain-catalytic); assay type: binding; conditions: 1000 nM; Entrez JAK2; read-out: Percent Control
T11 construct: JAK2(JH1domain-catalytic); purchased Eurofins DiscoverX KINOMEscan
Description: as §1

CDK4 = biological target: T12, CDK4 (Homo sapiens, UniProt P11802); test: KINOMEscan 1 μM, CDK4; assay type: binding; conditions: 1000 nM; Entrez CDK4; read-out: Percent Control
T12 construct: purchased Eurofins DiscoverX KINOMEscan
Description: as §1

DAPK1 = biological target: T13, DAPK1 (Homo sapiens, UniProt P53355); test: KINOMEscan 1 μM, DAPK1; assay type: binding; conditions: 1000 nM; Entrez DAPK1; read-out: Percent Control
T13 construct: purchased Eurofins DiscoverX KINOMEscan
Description: as §1

ERBB3 = biological target: T14, ERBB3 (Homo sapiens, UniProt P21860); test: KINOMEscan 1 μM, ERBB3; assay type: binding; conditions: 1000 nM; Entrez ERBB3; read-out: Percent Control
T14 construct: purchased Eurofins DiscoverX KINOMEscan
Description: as §1

AURKC = biological target: T15, AURKC (Homo sapiens, UniProt Q9UQB9); test: KINOMEscan 1 μM, AURKC; assay type: binding; conditions: 1000 nM; Entrez AURKC; read-out: Percent Control
T15 construct: purchased Eurofins DiscoverX KINOMEscan
Description: as §1

MEK2 = biological target: T16, MEK2 (Homo sapiens, UniProt P36507); test: KINOMEscan 1 μM, MEK2; assay type: binding; conditions: 1000 nM; Entrez MAP2K2; read-out: Percent Control
T16 construct: purchased Eurofins DiscoverX KINOMEscan
Description: as §1

CLK3 = biological target: T17, CLK3 (Homo sapiens, UniProt P49761); test: KINOMEscan at 1 μM, CLK3; assay type: binding; conditions: 1000 nM, read-out: Percent Control
T17 construct: purchased Eurofins DiscoverX KINOMEscan
Description: (§2) Supplement cells-12-00287-s001.zip/File S2. KinomeScan data for the CAMKK2 probe and negative control.xlsx, sheet "SGC-CAMKK2-1N" | column: Percent Control

PKN1 = biological target: T18, PKN1 (Homo sapiens, UniProt Q16512); test: KINOMEscan binding assay at 1 μM, PKN1; conditions: Compound Concentration 1000 nM; read-out: Percent Control
T18 construct: purchased Eurofins DiscoverX KINOMEscan
Description: as §2

TNNI3K = biological target: T19, TNNI3K (Homo sapiens, UniProt Q59H18); test: KINOMEscan at 1 μM, TNNI3K; assay type: binding; conditions: 1000 nM, read-out: Percent Control
T19 construct: purchased Eurofins DiscoverX KINOMEscan
Description: as §2

BTK = biological target: T20, BTK (Homo sapiens, UniProt Q06187); test: KINOMEscan at 1 μM, BTK; assay type: binding; conditions: 1000 nM, read-out: Percent Control
T20 construct: purchased Eurofins DiscoverX KINOMEscan
Description: as §2

DMPK2 = biological target: T21, DMPK2 (Homo sapiens, UniProt Q6DT37); test: KINOMEscan at 1 μM, DMPK2; assay type: binding; conditions: 1000 nM, read-out: Percent Control
T21 construct: purchased Eurofins DiscoverX KINOMEscan
Description: as §2

PIK3CD = biological target: T22, PIK3CD (Homo sapiens, UniProt O00329); test: KINOMEscan binding assay at 1 μM, PIK3CD; conditions: Compound Concentration 1000 nM; read-out: Percent Control
T22 construct: purchased Eurofins DiscoverX KINOMEscan
Description: as §2

CDKL1 = biological target: T23, CDKL1 (Homo sapiens, UniProt Q00532); test: KINOMEscan at 1 μM, CDKL1; assay type: binding; conditions: 1000 nM, read-out: Percent Control
T23 construct: purchased Eurofins DiscoverX KINOMEscan
Description: as §2

ROCK2 = biological target: T24, ROCK2 (Homo sapiens, UniProt O75116); test: KINOMEscan at 1 μM, ROCK2; assay type: binding; conditions: 1000 nM, read-out: Percent Control
T24 construct: purchased Eurofins DiscoverX KINOMEscan
Description: as §2

ACVR2B = biological target: T25, ACVR2B (Homo sapiens, UniProt Q13705); test: KINOMEscan at 1 μM, ACVR2B; assay type: binding; conditions: 1000 nM, read-out: Percent Control
T25 construct: purchased Eurofins DiscoverX KINOMEscan
Description: as §2

STK35 = biological target: T26, STK35 (Homo sapiens, UniProt Q8TDR2); test: KINOMEscan at 1 μM, STK35; assay type: binding; conditions: 1000 nM, read-out: Percent Control
T26 construct: purchased Eurofins DiscoverX KINOMEscan
Description: as §2

STK36 = biological target: T27, STK36 (Homo sapiens, UniProt Q9NRP7); test: KINOMEscan at 1 μM, STK36; assay type: binding; conditions: 1000 nM, read-out: Percent Control
T27 construct: purchased Eurofins DiscoverX KINOMEscan
Description: as §2

NEK7 = biological target: T28, NEK7 (Homo sapiens, UniProt Q8TDX7); test: KINOMEscan at 1 μM, NEK7; assay type: binding; conditions: 1000 nM, read-out: Percent Control
T28 construct: purchased Eurofins DiscoverX KINOMEscan
Description: as §2

PIP5K2B = biological target: T29, PIP5K2B (Homo sapiens, UniProt P78356); test: KINOMEscan at 1 μM, PIP5K2B; assay type: binding; conditions: 1000 nM, read-out: Percent Control
T29 construct: purchased Eurofins DiscoverX KINOMEscan
Description: as §2

MERTK = biological target: T30, MERTK (Homo sapiens, UniProt Q12866); test: KINOMEscan at 1 μM, MERTK; assay type: binding; conditions: 1000 nM, read-out: Percent Control
T30 construct: purchased Eurofins DiscoverX KINOMEscan
Description: as §2

PAK1 = biological target: T31, PAK1 (Homo sapiens, UniProt Q13153); test: KINOMEscan at 1 μM, PAK1; assay type: binding; conditions: 1000 nM, read-out: Percent Control
T31 construct: purchased Eurofins DiscoverX KINOMEscan
Description: as §2

EPHA6 = biological target: T32, EPHA6 (Homo sapiens, UniProt Q9UF33); test: KINOMEscan binding assay at 1 μM, EPHA6; conditions: Compound Concentration 1000 nM; read-out: Percent Control
T32 construct: purchased Eurofins DiscoverX KINOMEscan
Description: as §2

DRAK2 = biological target: T33, DRAK2 (Homo sapiens, UniProt O94768); test: KINOMEscan at 1 μM, DRAK2; assay type: binding; conditions: 1000 nM, read-out: Percent Control
T33 construct: purchased Eurofins DiscoverX KINOMEscan
Description: as §2

PRKG2 = biological target: T34, PRKG2 (Homo sapiens, UniProt Q13237); test: KINOMEscan at 1 μM, PRKG2; assay type: binding; conditions: 1000 nM, read-out: Percent Control
T34 construct: purchased Eurofins DiscoverX KINOMEscan
Description: as §2

T32 sequence (Q9UF33 23-1036): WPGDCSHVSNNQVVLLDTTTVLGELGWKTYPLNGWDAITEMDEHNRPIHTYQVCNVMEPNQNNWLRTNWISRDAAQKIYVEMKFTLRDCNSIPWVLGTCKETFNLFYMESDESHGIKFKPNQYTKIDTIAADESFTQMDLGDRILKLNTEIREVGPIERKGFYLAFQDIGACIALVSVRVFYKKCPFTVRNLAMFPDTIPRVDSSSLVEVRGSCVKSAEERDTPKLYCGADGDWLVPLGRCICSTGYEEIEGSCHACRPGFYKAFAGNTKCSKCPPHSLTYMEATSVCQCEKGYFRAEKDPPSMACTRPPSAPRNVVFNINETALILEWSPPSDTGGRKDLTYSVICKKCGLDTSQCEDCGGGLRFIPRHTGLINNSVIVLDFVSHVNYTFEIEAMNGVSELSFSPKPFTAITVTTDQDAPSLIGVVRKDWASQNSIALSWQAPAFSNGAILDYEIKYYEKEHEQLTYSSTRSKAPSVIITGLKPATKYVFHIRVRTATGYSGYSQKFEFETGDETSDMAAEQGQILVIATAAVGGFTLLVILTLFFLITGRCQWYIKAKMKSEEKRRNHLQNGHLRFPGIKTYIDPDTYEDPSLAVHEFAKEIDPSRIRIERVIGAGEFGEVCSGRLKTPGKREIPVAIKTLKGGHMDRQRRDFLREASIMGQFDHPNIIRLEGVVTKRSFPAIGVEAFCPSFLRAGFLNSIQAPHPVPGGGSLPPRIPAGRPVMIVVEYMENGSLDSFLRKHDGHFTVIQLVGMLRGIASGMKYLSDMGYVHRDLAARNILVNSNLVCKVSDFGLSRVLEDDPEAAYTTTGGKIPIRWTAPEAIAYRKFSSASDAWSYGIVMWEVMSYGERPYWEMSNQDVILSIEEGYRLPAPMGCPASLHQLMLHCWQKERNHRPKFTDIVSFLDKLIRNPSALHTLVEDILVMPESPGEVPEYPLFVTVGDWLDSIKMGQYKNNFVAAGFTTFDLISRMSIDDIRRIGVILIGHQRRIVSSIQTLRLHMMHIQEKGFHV
T12 sequence (P11802 whole entry): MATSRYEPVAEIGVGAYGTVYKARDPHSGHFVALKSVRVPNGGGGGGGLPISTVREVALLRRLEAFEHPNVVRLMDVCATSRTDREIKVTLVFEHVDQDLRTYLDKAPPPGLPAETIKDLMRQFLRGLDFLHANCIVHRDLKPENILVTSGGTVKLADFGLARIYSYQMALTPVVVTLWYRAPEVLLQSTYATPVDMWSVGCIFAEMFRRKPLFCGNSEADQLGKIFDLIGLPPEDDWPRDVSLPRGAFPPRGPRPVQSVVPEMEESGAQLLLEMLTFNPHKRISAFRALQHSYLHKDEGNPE
T26 sequence (Q8TDR2 whole entry): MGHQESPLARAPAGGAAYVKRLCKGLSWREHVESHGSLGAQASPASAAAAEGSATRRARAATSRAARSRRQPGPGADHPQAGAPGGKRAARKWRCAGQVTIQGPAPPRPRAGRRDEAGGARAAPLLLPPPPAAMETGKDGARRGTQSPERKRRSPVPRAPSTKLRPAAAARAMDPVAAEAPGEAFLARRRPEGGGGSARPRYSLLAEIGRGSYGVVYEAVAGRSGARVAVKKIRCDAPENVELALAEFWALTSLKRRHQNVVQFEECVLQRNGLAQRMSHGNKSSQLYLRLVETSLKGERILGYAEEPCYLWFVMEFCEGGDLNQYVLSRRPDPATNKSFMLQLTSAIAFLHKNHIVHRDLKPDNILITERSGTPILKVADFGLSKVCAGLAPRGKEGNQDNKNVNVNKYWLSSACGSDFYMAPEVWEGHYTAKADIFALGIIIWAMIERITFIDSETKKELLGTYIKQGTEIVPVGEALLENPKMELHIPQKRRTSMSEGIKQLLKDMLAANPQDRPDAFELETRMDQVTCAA
T6 sequence (P04629 33-796): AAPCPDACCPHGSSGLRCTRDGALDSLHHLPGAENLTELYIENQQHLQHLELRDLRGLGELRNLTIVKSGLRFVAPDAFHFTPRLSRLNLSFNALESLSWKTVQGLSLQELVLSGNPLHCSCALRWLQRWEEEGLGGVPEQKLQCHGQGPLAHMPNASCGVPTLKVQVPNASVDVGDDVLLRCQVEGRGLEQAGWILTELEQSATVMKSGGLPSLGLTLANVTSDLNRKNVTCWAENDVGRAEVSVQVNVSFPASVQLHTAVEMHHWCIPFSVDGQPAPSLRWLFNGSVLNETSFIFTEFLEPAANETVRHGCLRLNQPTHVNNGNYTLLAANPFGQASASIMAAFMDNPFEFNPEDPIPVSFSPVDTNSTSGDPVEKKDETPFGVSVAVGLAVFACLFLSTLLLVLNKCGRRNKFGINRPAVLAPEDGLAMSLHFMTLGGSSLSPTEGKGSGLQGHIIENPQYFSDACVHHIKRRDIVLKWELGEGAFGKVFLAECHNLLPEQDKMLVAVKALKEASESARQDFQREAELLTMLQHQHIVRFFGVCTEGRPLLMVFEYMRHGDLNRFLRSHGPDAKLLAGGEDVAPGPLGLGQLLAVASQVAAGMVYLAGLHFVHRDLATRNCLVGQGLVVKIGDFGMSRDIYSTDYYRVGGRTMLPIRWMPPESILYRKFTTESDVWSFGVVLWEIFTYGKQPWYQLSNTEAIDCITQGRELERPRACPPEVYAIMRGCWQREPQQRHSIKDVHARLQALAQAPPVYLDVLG
T29 sequence (P78356 whole entry): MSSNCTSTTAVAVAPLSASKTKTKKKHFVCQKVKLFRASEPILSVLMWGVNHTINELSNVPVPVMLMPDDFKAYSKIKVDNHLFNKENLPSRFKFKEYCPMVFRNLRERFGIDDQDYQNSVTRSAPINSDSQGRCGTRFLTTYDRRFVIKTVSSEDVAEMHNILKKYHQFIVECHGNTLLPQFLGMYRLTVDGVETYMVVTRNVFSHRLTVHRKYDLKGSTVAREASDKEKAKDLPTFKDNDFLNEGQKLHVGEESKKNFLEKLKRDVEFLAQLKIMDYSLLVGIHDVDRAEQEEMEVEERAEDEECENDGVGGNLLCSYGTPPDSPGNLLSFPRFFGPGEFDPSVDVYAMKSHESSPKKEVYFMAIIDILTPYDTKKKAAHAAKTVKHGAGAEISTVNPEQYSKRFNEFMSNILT
T5 sequence (Q16659 whole entry): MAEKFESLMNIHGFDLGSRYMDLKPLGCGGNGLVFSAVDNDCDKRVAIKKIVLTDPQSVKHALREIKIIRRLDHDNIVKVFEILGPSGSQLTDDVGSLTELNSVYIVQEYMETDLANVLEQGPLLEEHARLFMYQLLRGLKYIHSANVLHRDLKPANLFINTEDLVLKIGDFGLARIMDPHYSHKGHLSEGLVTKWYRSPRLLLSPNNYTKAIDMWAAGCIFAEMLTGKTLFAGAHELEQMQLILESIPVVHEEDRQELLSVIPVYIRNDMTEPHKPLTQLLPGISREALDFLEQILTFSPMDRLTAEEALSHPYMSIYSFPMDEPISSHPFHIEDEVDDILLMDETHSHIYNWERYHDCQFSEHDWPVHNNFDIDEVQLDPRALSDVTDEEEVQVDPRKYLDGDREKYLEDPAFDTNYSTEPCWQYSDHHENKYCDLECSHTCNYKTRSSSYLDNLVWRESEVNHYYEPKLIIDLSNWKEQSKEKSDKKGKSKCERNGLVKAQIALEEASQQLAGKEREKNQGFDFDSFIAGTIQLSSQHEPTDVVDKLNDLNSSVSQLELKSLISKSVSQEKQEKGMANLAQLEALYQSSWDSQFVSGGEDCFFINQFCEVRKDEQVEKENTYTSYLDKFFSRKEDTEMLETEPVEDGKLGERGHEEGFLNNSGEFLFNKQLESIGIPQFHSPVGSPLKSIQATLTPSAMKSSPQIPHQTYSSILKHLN
T10 sequence (P00533 25-1210 T790M): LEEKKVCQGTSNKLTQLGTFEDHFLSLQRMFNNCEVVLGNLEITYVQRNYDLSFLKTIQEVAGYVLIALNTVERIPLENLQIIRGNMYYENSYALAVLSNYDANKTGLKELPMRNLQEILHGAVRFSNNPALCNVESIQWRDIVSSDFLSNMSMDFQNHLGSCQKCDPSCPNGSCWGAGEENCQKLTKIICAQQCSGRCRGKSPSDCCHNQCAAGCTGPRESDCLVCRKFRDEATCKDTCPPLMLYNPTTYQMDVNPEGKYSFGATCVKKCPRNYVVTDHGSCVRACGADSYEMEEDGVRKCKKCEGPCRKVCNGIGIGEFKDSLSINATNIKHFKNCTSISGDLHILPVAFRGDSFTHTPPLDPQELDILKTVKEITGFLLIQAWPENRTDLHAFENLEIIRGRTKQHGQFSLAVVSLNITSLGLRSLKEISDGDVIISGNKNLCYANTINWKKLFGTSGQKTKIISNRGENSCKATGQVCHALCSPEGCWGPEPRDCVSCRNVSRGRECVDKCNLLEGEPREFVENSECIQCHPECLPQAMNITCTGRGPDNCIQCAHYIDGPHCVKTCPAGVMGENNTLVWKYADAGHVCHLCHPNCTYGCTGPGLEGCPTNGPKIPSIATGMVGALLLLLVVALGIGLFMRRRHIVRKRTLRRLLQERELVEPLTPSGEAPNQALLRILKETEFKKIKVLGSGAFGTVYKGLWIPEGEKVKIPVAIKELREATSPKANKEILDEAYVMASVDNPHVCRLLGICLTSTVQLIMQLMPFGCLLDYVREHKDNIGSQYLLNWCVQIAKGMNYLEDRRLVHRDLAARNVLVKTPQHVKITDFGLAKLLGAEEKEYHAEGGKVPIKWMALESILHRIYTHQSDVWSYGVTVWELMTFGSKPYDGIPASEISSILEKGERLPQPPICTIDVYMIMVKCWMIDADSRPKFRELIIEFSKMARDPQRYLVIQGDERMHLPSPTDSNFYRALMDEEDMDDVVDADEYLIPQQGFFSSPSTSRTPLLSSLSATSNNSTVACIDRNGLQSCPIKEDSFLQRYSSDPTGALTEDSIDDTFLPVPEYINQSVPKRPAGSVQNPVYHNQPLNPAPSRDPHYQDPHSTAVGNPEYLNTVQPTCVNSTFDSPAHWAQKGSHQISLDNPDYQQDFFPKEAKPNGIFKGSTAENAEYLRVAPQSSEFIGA

Cc1cccc(-c2cnc3occ(-c4ccc(C(=O)O)c(C5CCCC5)c4)c3c2)c1 [SGC-CAMKK2-1 (YL-36)]
remaining binding at 1 µM (SIK): 100% | remaining binding at 1 µM (CDKL5): 100% | remaining binding at 1 µM (MST1R): 86% | remaining binding at 1 µM (RIOK3): 75% | remaining binding at 1 µM (ERK3): 81% | remaining binding at 1 µM (TRKA): 100% | remaining binding at 1 µM (BRAF): 100% | remaining binding at 1 µM (LATS1): 100% | remaining binding at 1 µM (GRK7): 94% | remaining binding at 1 µM (EGFR(T790M)): 100% | remaining binding at 1 µM [1]: 100% | remaining binding at 1 µM (CDK4): 100% | remaining binding at 1 µM (DAPK1): 100% | remaining binding at 1 µM (ERBB3): 86% | remaining binding at 1 µM (AURKC): 99% | remaining binding at 1 µM (MEK2): 100%

O=C(O)c1ccc(-c2coc3ncc(-c4ccccc4)cc23)cc1Cl [SGC-CAMKK2-1N (UNC-YL-83)]
remaining binding at 1 µM (CLK3): 85% | remaining binding at 1 µM (PKN1): 100% | remaining binding at 1 µM (TNNI3K): 95% | remaining binding at 1 µM (BTK): 60% | remaining binding at 1 µM (DMPK2): 100% | remaining binding at 1 µM (PIK3CD): 100% | remaining binding at 1 µM (CDKL1): 72% | remaining binding at 1 µM (ROCK2): 70% | remaining binding at 1 µM (ACVR2B): 66% | remaining binding at 1 µM (STK35): 88% | remaining binding at 1 µM (STK36): 75% | remaining binding at 1 µM (NEK7): 78% | remaining binding at 1 µM (PIP5K2B): 74% | remaining binding at 1 µM (MERTK): 93% | remaining binding at 1 µM (PAK1): 42% | remaining binding at 1 µM (EPHA6): 100% | remaining binding at 1 µM (DRAK2): 90% | remaining binding at 1 µM (PRKG2): 80%
